Test results published in patent EP4378525A1, “NON PEPTIDERGIC AGONISTS OF OXYTOCIN RECEPTOR” (Université de Strasbourg, priority 2022, dated 2024).
Like-named read-outs stand apart in the source and are kept apart here.

How the values were obtained:
oxytocin receptor = target: T1, oxytocin receptor (Homo sapiens, UniProt P30559); assay: IP-One IP1 accumulation assay in CHO cell lines expressing oxytocin receptor (agonist activation); assay type: cell-based; settings: n=3; for Emax: CHO, percentage of the endogenous agonist maximal stimulation, read-out: OT-R Emax
T1 construct: expressed in transfected cells; host or cells: CHO cell lines
T1 sequence (P30559 1-389): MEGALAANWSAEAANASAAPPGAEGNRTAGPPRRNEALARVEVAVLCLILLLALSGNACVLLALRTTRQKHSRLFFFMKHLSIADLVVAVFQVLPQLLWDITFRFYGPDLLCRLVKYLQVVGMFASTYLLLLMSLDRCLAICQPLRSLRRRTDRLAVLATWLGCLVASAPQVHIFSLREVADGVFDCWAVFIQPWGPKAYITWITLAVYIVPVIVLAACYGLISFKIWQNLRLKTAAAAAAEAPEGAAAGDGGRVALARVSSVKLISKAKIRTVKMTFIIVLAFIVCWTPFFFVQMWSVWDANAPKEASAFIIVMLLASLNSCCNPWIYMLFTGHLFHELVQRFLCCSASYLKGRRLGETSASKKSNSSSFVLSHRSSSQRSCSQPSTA
Experimental: The activation constants (EC50 in nM) were measured in CHO cell lines expressing oxytocin receptor by IP-One IP1 accumulation assay. These values are the mean ± SEM of at least three separate experiments performed in triplicate. […] When there is only a weak stimulation, results are expressed as percentages of the endogenous agonist maximal stimulation at [ligand] = 1 µM (n = 2). Results are not significant (ns) when there is <10% response at [ligand] = 1 µM (n = 2).

[1] = in vivo; cited from earlier work
V1A-R = V1A-R (Homo sapiens, UniProt P37288); assay: V1A receptor antagonist assay measured as calcium signal; assay type: cell-based; settings: n=3; for Ratio V1A/OT: V1A-R IC50 / OT-R EC50; for IC50: antagonist, calcium signal, read-out: V1A-R (Antago) IC50
Chain of V1A-R (P37288 whole entry, species assumed): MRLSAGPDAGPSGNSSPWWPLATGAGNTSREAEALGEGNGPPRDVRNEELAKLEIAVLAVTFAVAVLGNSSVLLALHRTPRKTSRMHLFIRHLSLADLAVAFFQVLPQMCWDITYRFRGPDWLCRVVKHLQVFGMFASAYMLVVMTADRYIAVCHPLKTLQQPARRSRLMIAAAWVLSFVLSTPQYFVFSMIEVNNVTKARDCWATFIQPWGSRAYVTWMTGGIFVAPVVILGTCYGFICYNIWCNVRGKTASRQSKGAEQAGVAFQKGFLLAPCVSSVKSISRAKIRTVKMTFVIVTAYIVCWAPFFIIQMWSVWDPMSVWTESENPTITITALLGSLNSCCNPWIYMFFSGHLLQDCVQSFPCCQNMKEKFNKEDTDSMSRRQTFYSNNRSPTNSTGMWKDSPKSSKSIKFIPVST
Excerpt: Comparison of efficacy as OT receptor agonist (measured as described in example 2), or as VIA receptor antagonist (measured as calcium signal, as follows), has been performed.

[2] = CHO cell lines expressing oxytocin receptor, IP1 accumulation, read-out: OT-R EC50
[3] = selectivity table, measured as described in example 2, read-out: OT-R (Ago) EC50

| Compound | Emax (oxytocin receptor) [%] | EC50 (oxytocin receptor; [2]) [µM] | half-life in blood [1] | EC50 (oxytocin receptor; [3]) [µM] | Ratio V1A/OT (V1A-R) | IC50 (V1A-R) [µM] |
| --- | --- | --- | --- | --- | --- | --- |
| Cc1cc(C(=O)N2Cc3cnn(C)c3Nc3ccccc32)ccc1CNC(=O)N1C[C@H](N=[N+]=[N-])C[C@H]1C(=S)N(C)C [Compound 2] | 80 | 0.0391 | – | – | – | – |
| Cc1cc(C(=O)N2Cc3cnn(C)c3Nc3ccccc32)ccc1CNC(=O)N1C[C@H](n2cc(COCCOCCO)nn2)C[C@H]1C(=S)N(C)C [Compound 14] | – | 0.01 | – | – | – | – |
| Cc1cc(C(=O)N2Cc3cnn(C)c3Nc3ccccc32)ccc1CNC(=O)N1C[C@H](n2cc(CN)nn2)C[C@H]1C(=S)N(C)C [Compound 8] | 120 | 0.033 | – | – | – | – |
| CCCc1cn([C@@H]2C[C@@H](C(=S)N(C)C)N(C(=O)NCc3ccc(C(=O)N4Cc5cnn(C)c5Nc5ccccc54)cc3C)C2)nn1 [Compound 19] | – | 0.031 | – | – | – | – |
| oxytocin [OT] | – | – | about 3 minutes | – | – | – |
| Cc1cc(C(=O)N2Cc3cnn(C)c3Nc3ccccc32)ccc1CNC(=O)N1C[C@@H](n2cc(CO)nn2)C[C@H]1C(=S)N(C)C [Compound 6] | 100 | 0.0007 | – | 0.00112 | 117 | 0.131 |
| Cc1cc(C(=O)N2Cc3cnn(C)c3Nc3ccccc32)ccc1CNC(=O)N1CCC[C@H]1C(=S)N(C)C [Reference, reference compound] | 96.7 | 0.0451 | – | 0.0451 | 7.7 | 0.346 |
